Earlier results, collected in patent publication US11225462B2, “Crystal forms of oxypyridine amide derivative and preparation method therefor” (JIANGSU HENGRUI MEDICINE CO., LTD., priority 2018, dated 2022).

What was measured:
[1] = biological target: FXIa (Homo sapiens, UniProt P03951); settings: reported in WO 2018041122; cited from earlier work
[2] = reported in WO 2018041122; cited from earlier work
[3] = tested on: human blood; settings: reported in WO 2018041122; cited from earlier work

Chain of FXIa (P03951 388-625 limits assumed): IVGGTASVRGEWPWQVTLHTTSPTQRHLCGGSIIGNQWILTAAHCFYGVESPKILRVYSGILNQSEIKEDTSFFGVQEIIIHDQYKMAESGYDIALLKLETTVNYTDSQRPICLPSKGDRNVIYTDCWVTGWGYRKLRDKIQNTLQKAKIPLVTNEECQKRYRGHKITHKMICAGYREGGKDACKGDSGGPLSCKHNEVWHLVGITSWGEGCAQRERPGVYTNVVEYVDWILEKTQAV
Chain of FXIa (P03951 19-387 partner limits assumed): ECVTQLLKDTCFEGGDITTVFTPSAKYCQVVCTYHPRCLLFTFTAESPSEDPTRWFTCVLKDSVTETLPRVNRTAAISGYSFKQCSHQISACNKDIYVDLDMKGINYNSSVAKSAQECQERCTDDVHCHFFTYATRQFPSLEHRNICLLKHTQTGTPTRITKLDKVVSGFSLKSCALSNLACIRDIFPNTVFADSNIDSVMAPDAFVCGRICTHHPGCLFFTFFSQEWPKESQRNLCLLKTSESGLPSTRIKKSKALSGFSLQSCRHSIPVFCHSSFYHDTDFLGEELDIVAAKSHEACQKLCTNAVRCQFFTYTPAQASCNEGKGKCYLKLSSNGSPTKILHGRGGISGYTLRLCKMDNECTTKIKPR

CCC(=O)c1ccc(Cl)cc1-c1cc(=O)n([C@@H](CCOC(C)(C)C)C(=O)Nc2ccc(C(=O)O)cc2)cc1OC [compound of formula (I), (S)-4-(4-(tert-butoxy)-2-(4-(5-chloro-2-propionylphenyl)-5-methoxy-2-oxopyridin-1(2H)-yl)butanamido)benzoic acid]
inhibitory effect on FXIa [1]: significant inhibitory effect | pharmacokinetic absorption [2]: good pharmacokinetic absorption | anticoagulant effect on human blood [3]: significant anticoagulant effect
